Measurements taken from patent US8415469B2, “Compounds and methods for kinase modulation, and indications therefor” (Plexxikon Inc., priority 2005, dated 2013).

Experiments:
Format in all cases: biochemical
Jnk2 = molecular target: T1, Jnk2 (Homo sapiens, UniProt P45984); assay: AlphaScreen kinase assay, Jnk2; conditions: read-out: IC50, activity toward kinase Jnk2
T1 construct: purchased Roche Protein Expression Group (Indianapolis, IN)
Outline: (§1)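 Biotinylated peptide substrate is phosphorylated by kinase; anti-phosphopeptide antibody on acceptor beads and streptavidin donor beads bring emission when substrate is phosphorylated. Inhibition lowers acceptor signal. Compounds from 20 mM DMSO stock tested as 8-point 1:3 serial dilutions.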

Itk = molecular target: T2, Itk (Homo sapiens, UniProt Q08881); assay: AlphaScreen kinase assay, Itk; conditions: read-out: IC50, activity toward kinase Itk
T2 sequence (Q08881 1-620): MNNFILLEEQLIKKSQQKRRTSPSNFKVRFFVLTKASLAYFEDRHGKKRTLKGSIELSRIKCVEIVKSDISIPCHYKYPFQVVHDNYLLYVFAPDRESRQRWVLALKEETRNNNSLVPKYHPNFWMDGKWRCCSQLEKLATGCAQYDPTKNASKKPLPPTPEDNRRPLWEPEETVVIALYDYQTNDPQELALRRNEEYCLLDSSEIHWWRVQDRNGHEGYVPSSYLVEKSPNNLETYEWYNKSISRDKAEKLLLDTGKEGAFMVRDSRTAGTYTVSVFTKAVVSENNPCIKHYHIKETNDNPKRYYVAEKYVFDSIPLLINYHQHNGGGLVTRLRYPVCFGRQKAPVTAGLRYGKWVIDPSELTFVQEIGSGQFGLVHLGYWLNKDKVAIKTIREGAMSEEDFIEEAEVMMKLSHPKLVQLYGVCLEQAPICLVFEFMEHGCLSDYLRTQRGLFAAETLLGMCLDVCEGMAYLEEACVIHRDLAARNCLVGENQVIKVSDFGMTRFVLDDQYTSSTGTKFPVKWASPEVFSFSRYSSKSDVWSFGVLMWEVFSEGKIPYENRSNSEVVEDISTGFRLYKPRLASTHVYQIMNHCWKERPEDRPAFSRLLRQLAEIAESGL
Outline: as §1

Flt4 = molecular target: T3, Flt4 (Homo sapiens, UniProt P35916); assay: AlphaScreen kinase assay, Flt4; conditions: read-out: IC50, activity toward kinase Flt4
T3 construct: purchased ProQinase GmbH (Freiburg, Germany)
T3 sequence (P35916 25-1363): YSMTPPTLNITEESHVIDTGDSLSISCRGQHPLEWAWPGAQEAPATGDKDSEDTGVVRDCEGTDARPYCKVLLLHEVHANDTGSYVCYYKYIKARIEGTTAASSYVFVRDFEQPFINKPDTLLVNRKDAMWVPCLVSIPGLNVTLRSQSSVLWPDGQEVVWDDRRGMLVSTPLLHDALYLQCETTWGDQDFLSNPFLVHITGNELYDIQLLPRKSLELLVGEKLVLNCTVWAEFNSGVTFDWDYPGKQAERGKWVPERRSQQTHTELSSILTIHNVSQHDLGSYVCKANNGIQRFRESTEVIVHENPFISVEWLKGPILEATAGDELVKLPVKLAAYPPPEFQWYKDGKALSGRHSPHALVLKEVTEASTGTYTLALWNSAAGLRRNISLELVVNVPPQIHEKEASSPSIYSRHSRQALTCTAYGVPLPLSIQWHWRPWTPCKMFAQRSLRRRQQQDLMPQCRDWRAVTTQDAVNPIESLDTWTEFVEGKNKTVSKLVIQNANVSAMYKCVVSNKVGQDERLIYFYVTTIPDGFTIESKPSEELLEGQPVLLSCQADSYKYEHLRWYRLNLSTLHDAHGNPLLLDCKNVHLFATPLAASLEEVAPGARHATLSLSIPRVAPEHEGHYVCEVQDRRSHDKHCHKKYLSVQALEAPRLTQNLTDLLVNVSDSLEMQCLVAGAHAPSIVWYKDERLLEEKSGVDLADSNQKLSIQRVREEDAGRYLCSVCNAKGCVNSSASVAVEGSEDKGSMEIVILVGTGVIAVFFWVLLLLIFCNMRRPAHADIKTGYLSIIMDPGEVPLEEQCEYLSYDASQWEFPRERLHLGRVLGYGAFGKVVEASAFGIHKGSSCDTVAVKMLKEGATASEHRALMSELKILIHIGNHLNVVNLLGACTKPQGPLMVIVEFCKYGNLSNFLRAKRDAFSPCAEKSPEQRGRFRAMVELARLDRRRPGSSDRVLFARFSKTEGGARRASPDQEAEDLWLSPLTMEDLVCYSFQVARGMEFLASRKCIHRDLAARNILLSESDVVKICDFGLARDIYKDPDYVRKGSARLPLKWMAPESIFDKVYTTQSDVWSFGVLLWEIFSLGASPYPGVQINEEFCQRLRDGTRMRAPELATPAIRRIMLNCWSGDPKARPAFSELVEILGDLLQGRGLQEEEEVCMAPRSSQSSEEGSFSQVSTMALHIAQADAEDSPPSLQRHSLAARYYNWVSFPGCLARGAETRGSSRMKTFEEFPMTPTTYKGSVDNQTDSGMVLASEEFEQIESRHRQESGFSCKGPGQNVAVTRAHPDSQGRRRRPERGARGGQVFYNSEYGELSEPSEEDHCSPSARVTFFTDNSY
Outline: as §1

MAP2K1 = molecular target: T4, MAP2K1 (Homo sapiens, UniProt Q02750); assay: Z'-Lyte FRET kinase assay (Invitrogen), MAP2K1; conditions: read-out: IC50, activity toward kinase MAP2K1
T4 construct: purchased Invitrogen (assay run by Invitrogen)
T4 sequence (Q02750 whole entry): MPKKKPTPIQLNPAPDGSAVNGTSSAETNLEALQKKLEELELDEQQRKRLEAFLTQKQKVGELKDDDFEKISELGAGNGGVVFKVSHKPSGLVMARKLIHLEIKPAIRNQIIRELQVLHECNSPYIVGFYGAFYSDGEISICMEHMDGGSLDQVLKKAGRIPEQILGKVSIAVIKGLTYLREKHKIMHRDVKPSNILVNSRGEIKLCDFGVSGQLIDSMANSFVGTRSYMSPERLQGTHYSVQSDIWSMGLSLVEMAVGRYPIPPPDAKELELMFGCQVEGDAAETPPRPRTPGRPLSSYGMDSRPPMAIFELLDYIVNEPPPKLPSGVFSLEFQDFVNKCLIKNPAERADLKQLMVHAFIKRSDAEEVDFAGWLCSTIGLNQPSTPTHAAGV

T1 sequence (P45984 whole entry): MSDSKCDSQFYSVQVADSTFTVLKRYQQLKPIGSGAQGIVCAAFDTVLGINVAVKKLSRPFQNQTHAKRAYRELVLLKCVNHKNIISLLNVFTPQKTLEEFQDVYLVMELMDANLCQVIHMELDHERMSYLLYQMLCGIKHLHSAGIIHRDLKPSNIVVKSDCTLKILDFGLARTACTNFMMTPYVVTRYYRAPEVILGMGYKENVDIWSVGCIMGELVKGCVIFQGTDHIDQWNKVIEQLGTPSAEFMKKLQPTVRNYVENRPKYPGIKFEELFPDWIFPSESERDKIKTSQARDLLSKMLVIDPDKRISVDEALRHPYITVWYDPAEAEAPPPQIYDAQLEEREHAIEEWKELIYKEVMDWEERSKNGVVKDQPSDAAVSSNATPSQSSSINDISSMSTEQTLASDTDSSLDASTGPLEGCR

IC50 (Jnk2) [µM] | IC50 (Itk) [µM] | IC50 (Flt4) [µM] | IC50 (MAP2K1) [µM] | Structure (SMILES)
≤ 10 | ≤ 10 |  |  | O=C(c1cccc(O)c1F)c1c[nH]c2ncc(-c3cccnc3)cc12 [Compound P-0027, (2-Fluoro-3-hydroxy-phenyl)-(5-pyridin-3-yl-1H-pyrrolo[2,3-b]pyridin-3-yl)-methanone]
≤ 10 | ≤ 10 |  |  | O=C(c1cccc(O)c1)c1c[nH]c2ncc(Nc3ccccc3)cc12 [Compound P-0025]
≤ 10 |  |  |  | CCCCNC(=O)Nc1ccc(F)c(C(=O)c2c[nH]c3ncc(-c4cccnc4)cc23)c1F [Compound P-1318, 1-Butyl-3-[2,4-difluoro-3-(5-pyridin-3-yl-1H-pyrrolo[2,3-b]pyridine-3-carbonyl)-phenyl]-urea]
≤ 10 |  | ≤ 10 | ≤ 10 | CC(=O)Nc1cccc(-c2cnc3[nH]cc(C(=O)c4cc(O)ccc4F)c3c2)c1 [Compound P-0001]
≤ 10 |  | ≤ 10 |  | Cc1ccc(F)cc1C(=O)c1c[nH]c2ncc(-c3cccc(N)c3)cc12 [Compound P-0040]
≤ 10 |  | ≤ 10 | ≤ 10 | O=C(c1cc(O)ccc1F)c1c[nH]c2ncccc12 [Compound P-0005]
≤ 10 | ≤ 10 |  |  | Cc1c(O)cccc1C(=O)c1c[nH]c2ncc(-c3ccccc3)cc12 [Compound P-0016, (3-Hydroxy-2-methyl-phenyl)-(5-phenyl-1H-pyrrolo[2,3b]pyridin-3-yl)-methanone]
 | ≤ 10 |  |  | CS(=O)(=O)Nc1cccc(-c2cnc3[nH]cc(C(=O)c4cccc(O)c4F)c3c2)c1 [Compound P-0038, N-{3-[3-(2-Fluoro-3-hydroxy-benzoyl)-1H-pyrrolo[2,3-b]pyridin-5-yl]-phenyl}-methanesulfonamide]
 | ≤ 10 |  |  | O=C(c1cccc(O)c1F)c1c[nH]c2ncc(Br)cc12 [Compound P-0067, (5-bromo-1H-pyrrolo[2,3-b]pyridin-3-yl)-(2-fluoro-3-hydroxy-phenyl)-methanone]
≤ 10 |  |  | ≤ 10 | COc1ccc(C(=O)c2c[nH]c3ncc(-c4cccc(/C=C/C(=O)O)c4)cc23)c(Cl)c1 [Compound P-0015]
≤ 10 | ≤ 10 | ≤ 10 |  | O=C(c1cccc(O)c1F)c1c[nH]c2ncc(-c3cccs3)cc12 [Compound P-0521, (2-fluoro-3-hydroxy-phenyl)-(5-thiophen-2-yl-1H-pyrrolo[2,3-b]pyridin-3-yl)-methanone]
 |  |  | ≤ 10 | Nc1cccc(-c2ccnc3[nH]cc(C(=O)c4cc(F)ccc4F)c23)c1 [Compound P-0046]
≤ 10 | ≤ 10 |  |  | NC(=O)c1cccc(-c2cnc3[nH]cc(C(=O)c4cccc(O)c4F)c3c2)c1 [Compound P-0034, 3-[3-(2-Fluoro-3-hydroxy-benzoyl)-1H-pyrrolo[2,3-b]pyridin-5-yl]benzamide]
≤ 10 |  | ≤ 10 |  | COc1ccc(F)c(C(=O)c2c[nH]c3ncc(-c4cccnc4)cc23)c1 [Compound P-0090]
 |  |  | ≤ 10 | O=C(O)/C=C/c1cccc(-c2cnc3[nH]cc(C(=O)c4cc(O)ccc4F)c3c2)c1 [Compound P-0010]
≤ 10 |  |  |  | Cc1c(NS(C)(=O)=O)cccc1C(=O)c1c[nH]c2ncc(-c3ccccc3)cc12 [Compound P-0082, N-[2-Methyl-3-(5-phenyl-1H-pyrrolo[2,3-b]pyridine-3-carbonyl)-phenyl]-methanesulfonamide]
 |  | ≤ 10 |  | O=C(c1cc(O)ccc1F)c1c[nH]c2ncc(-c3cccs3)cc12 [Compound P-0032]
 | ≤ 10 |  |  | O=C(c1cccc(O)c1F)c1c[nH]c2ncc(-c3ccccc3)cc12 [Compound P-0036, (2-fluoro-3-hydroxy-phenyl)-(5-phenyl-1H-pyrrolo[2,3-b]pyridin-3-yl)-methanone]
≤ 10 |  |  |  | O=C(O)/C=C/c1cccc(-c2cnc3[nH]cc(C(=O)c4ccccc4F)c3c2)c1 [Compound P-0033]
≤ 10 | ≤ 10 |  |  | CC(=O)Nc1cccc(-c2cnc3[nH]cc(C(=O)c4cccc(O)c4F)c3c2)c1 [Compound P-0035, N-{3-[3-(2-Fluoro-3-hydroxy-benzoyl)-1H-pyrrolo[2,3-b]pyridin-5-yl]-phenyl}-acetamide]
 | ≤ 10 | ≤ 10 |  | O=C(c1ccc(O)cc1)c1c[nH]c2ncc(-c3cccs3)cc12 [Compound P-0024, (4-Hydroxy-phenyl)-(5-thiophen-2-yl-1H-pyrrolo[2,3-b]pyridin-3-yl)-methanone]
≤ 10 | ≤ 10 | ≤ 10 |  | O=C(c1cccc(O)c1)c1c[nH]c2ncc(-c3cccs3)cc12 [Compound P-0196]

More lines, now with the values behind:

Structure (SMILES) | IC50 (Jnk2) [µM] | IC50 (Itk) [µM] | IC50 (Flt4) [µM] | IC50 (MAP2K1) [µM]
Oc1cccc(Cc2c[nH]c3ncc(-c4ccsc4)cc23)c1 [Compound P-0056] | ≤ 10 |  |  | 
O=C(c1cccc(O)c1)c1c[nH]c2ncccc12 [Compound P-0011] |  |  | ≤ 10 | ≤ 10
Cc1ccccc1C(=O)c1c[nH]c2nccc(-c3ccc(C(N)=O)cc3)c12 [Compound P-0017] |  |  |  | ≤ 10
CS(=O)(=O)c1cccc(-c2cnc3[nH]cc(C(O)c4c(F)ccc(F)c4F)c3c2)c1 (stereo not drawn) [Compound P-0020] |  | ≤ 10 |  | 
O=C(c1cccc(O)c1)c1c[nH]c2ncc(Br)cc12 [Compound P-0019] |  | ≤ 10 | ≤ 10 | 
Cn1cc(C(F)(F)F)c(-c2ccc(S(=O)(=O)NCc3c[nH]c4ncccc34)s2)n1 [Compound P-0041] |  |  | ≤ 10 | ≤ 10
CCCS(=O)(=O)Nc1ccc(F)c(C(=O)c2c[nH]c3ncc(-c4cccnc4)cc23)c1F [Compound P-0088, Propane-1-sulfonic acid [2,4-difluoro-3-(5-pyridin-3-yl-1H-pyrrolo[2,3-b]pyridine-3-carbonyl)-phenyl]-amide] | ≤ 10 |  |  | 
Cc1ccc(S(=O)(=O)NCc2c[nH]c3ncccc23)cc1 [Compound P-0058] |  |  |  | ≤ 10
O=C(c1ccccc1F)c1c[nH]c2nccc(-c3ccsc3)c12 [Compound P-0051] |  |  |  | ≤ 10
Oc1cc(O)cc(Cc2c[nH]c3ncc(-c4ccsc4)cc23)c1 [Compound P-0093] |  |  | ≤ 10 | 
NC(=O)c1ccc(-c2ccnc3[nH]cc(C(=O)c4cc(F)ccc4F)c23)cc1 [Compound P-0013] | ≤ 10 | ≤ 10 |  | 
CCCS(=O)(=O)Nc1ccc(F)c(C(=O)c2c[nH]c3ncc(OC)cc23)c1F [Compound P-0806, Propane-1-sulfonic acid [2,4-difluoro-3-(5-methoxy-1H-pyrrolo[2,3-b]pyridine-3-carbonyl)-phenyl]-amide] |  |  |  | ≤ 10
O=C(c1cccc(O)c1)c1c[nH]c2nccc(-c3cc(F)cc(F)c3)c12 [Compound P-0039] |  |  | ≤ 10 | 
Oc1cccc(Cc2c[nH]c3ncc(-c4cccs4)cc23)c1F [Compound P-0052, 2-Fluoro-3-(5-thiophen-2-yl-1H-pyrrolo[2,3-b]pyridin-3-ylmethyl)-phenol] | ≤ 10 |  |  | 
NC(=O)c1ccc(-c2ccnc3[nH]cc(C(=O)c4ccccc4F)c23)cc1 [Compound P-0014] |  |  |  | ≤ 10
O=C(c1cccc(O)c1)c1c[nH]c2nccc(Cl)c12 [Compound P-0012] |  |  | ≤ 10 | ≤ 10
Nc1ccnc2[nH]cc(C(=O)c3ccccc3)c12 [Compound P-0029] |  |  | ≤ 10 | ≤ 10
Nc1cccc(-c2ccnc3[nH]cc(C(=O)c4ccccc4F)c23)c1 [Compound P-0022] |  |  |  | ≤ 10
